# Results: patent publication US6180637A, “1,2,5-trisubstituted 1,2-dihydroindazol-3-ones having anti-asthmatic, anti-allergic, anti-inflammatory, immunomodulating and neuroprotective action, process for their preparation and their use as medicaments” (Arzneimittelwerk Dresden GmbH, priority 1998, dated 2001)
# Key:
# human cyclophilin B = human cyclophilin B (Homo sapiens, UniProt P23284); test: Peptidylprolyl isomerase (PPIase) activity inhibition assay; format: biochemical; conditions: 10 μM compound; 10 nmol Cyp B, preincubated at 4° C. for 15 minutes; test peptide Suc-Ala-Ala-Pro-Phe-Nan
# Method: For the initial screening (10 μmol/l), the inhibition of the human cyclophilin B in the PPIase test is determined.
# Assay for the determination of the peptidylprolyl isomerase (PPIase) activity and inhibition
# The PPIase activity is tested according to a globally customary enzyme test: G. Fischer, H. Bang, C. Mech, Biomed. Biochim. Acta 43 1101-1111; G. Fischer, H. Bang, A. Schellenberger, Biochim. Biophys. Acta 791 (1984), 87-97; D. H. Rich et al., J. Med. Chem. 38 (1995), 4164-4170.
# The compounds of the general formula I according to the invention are preincubated at 4° C. for 15 minutes together with 10 nmol of Cyp B. The enzyme reaction is started using the test peptide Suc-Ala-Ala-Pro-Phe-Nan after addition of chymotrypsin and HEPES buffer. The extinction change at 390 nm is then monitored and evaluated. The photometrically determined extinction change results from two sub-reactions: a) the rapid chymotryptic cleavage of the trans-peptide; b) the non-enzymatic cis-trans isomerization, which is catalysed by cyclophilins.
# [1] = system: pulmonary eosinophil infiltration; test: Inhibition of late-phase eosinophilia 24 h after inhalational ovalbumin challenge in actively sensitized guinea-pigs; format: in vivo, guinea-pig; conditions: 2 × 30 mg/kg i.p. -2h/+4h, BAL 24 h after OVA challenge
# Method: Inhibition of late-phase eosinophilia 24 h after inhalational ovalbumin challenge in actively sensitized guinea-pigs
# The inhibition of pulmonary eosinophil infiltration by the substances is tested in an in vivo test on male Dunkin-Hartley guinea-pigs (200-250 g) sensitized against ovalbumin (OVA). The sensitization is carried out by means of two intraperitoneal injections of a suspension of 20 μg of OVA together with 20 mg of aluminium hydroxide as an adjuvant in 0.5 ml of physiological saline solution per animal on two successive days. 14 days after the second injection, the animals are pretreated with mepyramine maleate (10 mg/kg i.p.) in order to protect them from anaphylactic death. 30 minutes later, the animals are exposed for 30 sec in a plastic box to an OVA aerosol (0.5 mg/ml) which is generated by a nebulizer driven by compressed air (19.6 kPa) (allergen challenge). Control animals are nebulized with physiological saline solution. […] The eosinophils are stained using the Becton-Dickinson test kit (N. 5877) for eosinophils and counted in a Neubauer chamber. […]
# The percentage inhibition of the eosinophilia of the test group treated with substance is calculated according to the following formula: […]
# Sequence of human cyclophilin B (P23284 34-216): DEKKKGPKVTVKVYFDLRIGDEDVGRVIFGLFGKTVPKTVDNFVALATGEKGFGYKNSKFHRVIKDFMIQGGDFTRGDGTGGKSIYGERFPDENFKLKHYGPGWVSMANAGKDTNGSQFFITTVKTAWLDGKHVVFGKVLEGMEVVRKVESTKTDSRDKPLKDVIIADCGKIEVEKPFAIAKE
SMILES,inhibition at 10 µM (human cyclophilin B),Inhibition [%] of eosinophilia ([1]; OVA-sensitized guinea-pigs),"Eosinophils million/animal x ± s, B ([1]; group B (test group treated with substance))"
"COc1ccc(S(=O)(=O)n2c3ccc(OC)cc3c(=O)n2Cc2cc([N+](=O)[O-])ccc2O)cc1 [Example 1, 2-(2-Hydroxy-5-nitrobenzyl)-5-methoxy-1-(4-methoxybenzenesulphonyl)-1,2-dihydroindazol-3-one]",70%,97%,0.51 ± 0.25 million/animal
"COc1ccc2c(c1)c(=O)n(Cc1cc([N+](=O)[O-])ccc1O)n2S(=O)(=O)c1ccc(C)cc1 [Example 2, 2-(2-hydroxy-5-nitrobenzyl)-5-methoxy-1-(toluene-4-sulphonyl)-1,2-dihydroindazol-3-one]",50%,–,–
"COc1ccc2c(c1)c(=O)n(Cc1cc([N+](=O)[O-])ccc1O)n2S(=O)(=O)c1ccc(OC(F)(F)F)cc1 [Example 3, 2-(2-hydroxy-5-nitrobenzyl)-5-methoxy-1-(4-trifluoro-methoxybenzenesulphonyl)-1,2-dihydroindazol-3-one]",93%,–,–

# Now from value to compound, other results behind:
inhibition at 10 µM (human cyclophilin B),SMILES,Inhibition [%] of eosinophilia ([1]; OVA-sensitized guinea-pigs),"Eosinophils million/animal x ± s, B ([1]; group B (test group treated with substance))"
90%,"COc1ccc2c(c1)c(=O)n(Cc1cc([N+](=O)[O-])ccc1O)n2S(=O)(=O)c1ccc(Cl)cc1 [Example 4, 2-(2-hydroxy-5-nitrobenzyl)-5-methoxy-1-(4-chloro-benzenesulphonyl)-1,2-dihydroindazol-3-one]",–,–
67%,"COc1ccc2c(c1)c(=O)n(Cc1cc([N+](=O)[O-])ccc1O)n2S(=O)(=O)c1ccc(F)cc1 [Example 5, 1-(4-fluorobenzenesulphonyl)-2-(2-hydroxy-5-nitrobenzyl)-5-methoxy-1,2-dihydroindazol-3-one]",–,–
98%,"CSc1ccc2c(c1)c(=O)n(Cc1cc([N+](=O)[O-])ccc1O)n2Cc1ccc(Cl)c(Cl)c1 [Example 26, 1-(3,4-Dichlorobenzyl)-2-(2-hydroxy-5-nitrobenzyl)-5-methylthio-1,2-dihydroindazol-3-one hydrate]",–,–
